The values below come from US20250100962A1 (CITY OF HOPE, priority 2023, published 2025).

In data set [1] the test system is C3H10T1/2 cells. Kind of data set: Adipogenic differentiation of C3H10T1/2 mesenchymal precursors. The data set is classed as cell-based. The conditions noted are these: for adipogenic factors C/EBPα and PPARγ / mature adipocyte marker expression (FASN): 1 μM, immunoblot; for adipogenic factors C/EBPα and PPARγ: day 7 differentiated; for mature adipocyte formation / lipid accumulation: day 8, oil-red-O and Bodipy. As for the experimental part: Cell culture and adipogenic differentiation. 3T3-L1 and C3H10T1/2 cell lines were obtained from ATCC, and maintained in DMEM with 10% fetal bovine serum supplemented with 1% Penicillin-Streptomycin-Glutamine, as previously described (Nam, Guo, Chatterjee et al., 2015; Liu, Xiong, Nam et al., 2020). 0.25% Trypsin was used for digestion and passaging of these cell lines. For adipogenic differentiation induction media (1.6 μM insulin, 1 μM dexamethasone, 0.5 mM IBMX, 0.5 uM Rosiglitazone) was used for 3 days followed by maintenance medium with insulin for 3 days for 3T3-L1 and 5 days for C3H10T1/2 cells, as previously described (Liu et al., 2020).
Oil-red-O and Bodipy staining. These stainings for neutral lipids during adipogenic differentiation were performed as previously described (Nam et al., 2015). Briefly, for oil-red-O staining, cells were fixed using 10% formalin and incubated using 0.5% oil-red-O solution for 1 hour. Bodipy 493/503 was used at 1 mg/L together with DAPI for 15 minutes, following 4% paraformaldehyde fixation and permeabilization with 0.2% triton-X100.
Immunoblot analysis. Total protein was extracted using lysis buffer containing 3% NaCl, 5% Tris-HCl, 10% Glycerol, 0.5% Triton X-10 in MilliQ water with protease inhibitor cocktail. 20-40 μg of total protein was resolved on 10% SDS-PAGE gels followed by immunoblotting on PVDF membranes (Bio-rad). Membranes were developed by chemiluminescence (SuperSignal West Pico, Pierce Biotechnology) and signals were obtained via a chemiluminescence imager (Amersham Imager 680, GE Biosciences).
(In western blotting, separated proteins are transferred to a membrane and probed.)

Data set [2] deals with mdx mouse primary myoblasts. Put plainly: MTT cell viability of mdx mouse primary myoblasts. The data set is classed as cell-based. As for the experimental part:
Cells were seeded at 5×10^4 concentration in 100 μl culture medium into 96 wells flat bottom microplates and treated after 24 h with desired compounds and controls. After desired incubation periods, cells were treated with MTT labeling reagent 1× (MTT (3-[4,5-dimethylthiazol-2-yl]-2,5-diphenyltetrazolium bromide labeling reagent, 5 mg/ml in PBS, Roche Cell Proliferation Kit I (MTT)) and Solubilization buffer 1× (10% SDS in 0.01 M HCl and left overnight. Next morning absorbance was measured at 570 nm and 700 nm on microplate (ELISA) reader (TECAN infinite M200pro). The mean and standard deviation values were calculated for each well and graphed.
FIGS. 41A-41D. Effect of Chlorhexidine (CHX) and CM002 treatment on viability of mouse and human myoblasts. To determine potential toxic effects of CHX and CM002, we treated mouse C2C12 myoblast cell line with increasing concentrations from 0.2-5 μM for 48 hours and determined cell viability using the MTT assay (FIG. 41A). […] Considering the inflammatory milieus in dystrophic muscles, we further tested the tolerance of myoblasts to these molecules in the presence of inflammatory stimuli, a cytokine cocktail (CC) consisted of 10 ng/mL IL-1β, 100 ng/mL IFN-γ and 25 ng/mL of TNF-α (FIG. 41B). […] Lastly, human primary myoblasts derived from Duchene Muscular Dystrophy (DMD) patients were used to determine their tolerance to these compounds.

The test system of data set [3] is C2C12 myoblasts. Kind of data set: Myogenic differentiation of C2C12 myoblasts. Type of data set: cell-based, mouse. The conditions noted are these: for MyHC-positive mature myotubes (immunofluorescence): C2C12 differentiation day 5-7. Here is the method: Pictures were taken every day to monitor morphological progression, and proteins and RNA samples were collected on days indicated.
C2C12, C2C12 Bmal1 KD and C2C12 Scrambled control (SC) myoblasts were seeded at Day −1 at 2×105 concentration on 12 wells plates and maintained in 10% FBS until 80% confluency and treated with indicated compounds and controls in 2% FBS DMEM media to induce differentiation on Day 0. On days 3, 5 and 7 cells were fixed with 4% paraformaldehyde (from 37% Formaldehyde Baker Analyzed) and kept at 4° C. in PBS. Cells were permeabilized with Permeabilization solution of 0.5% Triton X-100 (Fisher Bioreagents CN: 9002-93-1) in PBS and blocked with Blocking solution of 1% BSA (Fisher Bioreagents CN:9048-46-8) in PBS. Primary antibodies were diluted in Washing solution of 0.01% Triton X-100 (Fisher Bioreagents CN: 9002-93-1) in PBS and left overnight at 4° C. Cells were then incubated with secondary antibodies in Washing solution at room temperature for 1 h. 1 μg/ml 4′,6′-diamidine-2′-phenylindole dihydrochloride (DAPI) was used to label for nuclei. […] To quantify the proliferation of myoblast, when needed, cells were treated with 1 μg/ml of EdU for 3 h before fixation. Detection of EdU was performed with Click-iT EdU Alexa Fluor 488 Imaging Kit before applying the immunofluorescence staining as described above.

The subject of data set [4] is C2C12 myoblasts. Put plainly: EdU proliferation assay in C2C12 myoblasts. Type of data set: cell-based, mouse. Here is the method:
Cells were seeded at 0.2×10^5 concentration and treated with desired compounds and controls overnight. The seeding density was decided after trying several densities and choosing the one that after 24 h lead to visible, not clumping cells. 10 μM 5-ethynyl-2′-deoxyuridine (EdU) incorporation was performed during 4 h according to the kit protocol and detected by Click-iT Imaging Kit with Alexa 488 Fluorophore (Invitrogen). 1 μg/ml 4′,6′-diamidine-2′-phenylindole dihydrochloride (DAPI) was used to label for nuclei. Total number of EdU+ cells was counted from 8 representative fields at 20× and the rate of proliferation was calculated as percentage of EdU+/DAPI.

Where only a bound is given, the exact number is not on record here.

In the case of `[H]/N=C(\N/C(=N/[H])NCCCCCCNC(=N)NC(=N)Nc1ccc(Cl)cc1)Nc1ccc(Cl)cc1` [CHX, chlorhexidine], in data set [1], the “adipogenic factors C/EBPα and PPARγ” value is “significantly impaired levels of adipogenic factors”; the “mature adipocyte marker expression (FASN)” value was “attenuated expression of fatty acid synthase”; the “mature adipocyte formation / lipid accumulation” value is given as “attenuated mature adipocyte formation”. The “adipogenic maturation, early stage” value in data set [1] (5 days after adipogenic induction, oil-red-O) was “dose-dependent inhibition of adipogenic maturation”. In data set [2] (with cytokine cocktail), the “concentration causing cell death” value was at least 500 nM. In data set [3] (0.5 μM, Day 7), the myotube hypertrophy result is “induced notable myotube hypertrophy”. Moreover, the “morphological progression of myotube formation” value in data set [3] (2% serum differentiation, phase-contrast) was “markedly accelerated the morphological progression of myotube formation”. Besides, the “induction of Myf5 and eMyhc in Bmal1-deficient myoblasts” value in data set [3] (BMKD myoblasts) was “loss of CHX induction of Myf5 and eMyhc”. In data set [3] (BMKD vs SC), the “differentiation of Bmal1 shRNA (BMKD) myoblasts” value is “failed to augment BMKD myoblast differentiation”. In addition, the “MyHC-positive mature myotubes (immunofluorescence)” value in data set [3] is recorded as “increased numbers of MyHC-positive mature myotubes”. Besides, in data set [3] (C2C12 myoblasts), the “effective concentration range, pro-myogenic activities” value lay in the range of 0.2 to 0.5 µM. Besides, in data set [3] (CHX at 2 and 5 μM), the toxicity during differentiation result is “appeared to be toxic to myoblasts with cell death during differentiation”. Also, the “Myf5, Myod1 and eMyhc expressions” value in data set [3] (RT-qPCR) is on record as “significantly induced by 0.5 μM CHX with a tendency toward higher expression 0.2 μM”. In addition, the “Myf5 and Myogenin proteins” value in data set [3] (day 3 and day 5 of differentiation, immunoblot) was “early induction of myogenic factors Myf5 and Myogenin proteins”. For the same compound, in data set [4] (both concentrations tested, 24 hours), the “increase of proliferation (EdU incorporation)” value is about 40%.

Consider `CCCCCC/C=N/C(=N)NC(=N)Nc1ccc(Cl)cc1` [CM002], for which, in data set [1], the “adipogenic factors C/EBPα and PPARγ” value was “strong inhibition of adipogenic factors C/EBPα and PPARγ”; the “mature adipocyte marker expression (FASN)” value is “substantially lower”; the “mature adipocyte formation / lipid accumulation” value was “markedly suppressed their differentiation in a dose-dependent manner”. For the same compound, the “concentration up to which cells remain viable” value in data set [2] (mdx, mouse) is reported as “up to 1 μM”. The “cell death at 2.5 μM” value in data set [2] (mdx, mouse, 2.5 μM) is listed as “significantly less cell death at 2.5 μM”. For the same compound, the “MyHC-positive mature myotubes (immunofluorescence)” value in data set [3] is “enhanced differentiation induced by 0.5 μM CM002 than CHX with strongest effect on promoting myotube formation observed at CM002 at 1 μM”. For the same compound, the Myogenesis entry in data set [3] (Table 1 summary of CHX analogs) is listed as “Enhanced”. For the same compound, the “proliferation (EdU incorporation)” value in data set [4] (4 hours, 0.5 and 1 μM) is “significantly increased proliferation of C2C12 myoblasts”.
